Reference: US20250129103A1, “METHODS FOR TREATMENT OF CANCER” (Frontier Medicines Corporation, priority 2022, published 2025)
Values after ≈ are worked out from the molar mass of the structure shown.

Legend:
[1] = target: KRAS G12C (GMPPNP-loaded) and cRAF (Ras-binding domain) interaction (Homo sapiens (Human), UniProt P01116, C118S/C51S/C80L/G12C); test: Inhibition of KRAS G12C and cRAF binding (AlphaScreen); conditions: KRAS G12C loaded with GMPPNP, cRaf RBD, 2 hours preincubation; read-out: Raf-1 RBD K-Ras IC50
Chain of KRAS G12C (GMPPNP-loaded) and cRAF (Ras-binding domain) interaction (P01116 other isoform, or with tags, fused parts or gaps G12C/C51S/C80L/C118S): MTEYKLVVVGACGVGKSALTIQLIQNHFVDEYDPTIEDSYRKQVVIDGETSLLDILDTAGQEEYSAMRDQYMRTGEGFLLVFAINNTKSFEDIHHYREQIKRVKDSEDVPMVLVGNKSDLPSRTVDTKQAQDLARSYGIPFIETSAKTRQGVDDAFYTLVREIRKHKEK
In short: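 AlphaScreen readout (680 nm excitation, 570 nm emission) of RBD binding after a 60-90 min bead step at room temperature. This step follows 2 h compound exposure of GMPPNP-preloaded KRAS G12C in Hepes pH 7.4 buffer with MgCl2 and 10 μM GMPPNP.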

[2] = target: KRAS G12C (GMPPNP-loaded) and PI3Ka (Ras-binding domain) interaction (Homo sapiens (Human), UniProt P01116, C118S/C51S/C80L/G12C); test: Inhibition of KRAS G12C and PI3Ka binding (AlphaScreen); conditions: KRAS G12C loaded with GMPPNP, PI3Ka RBD, 2 hours preincubation; read-out: PI3K RBD K-Ras IC50
Chain of KRAS G12C (GMPPNP-loaded) and PI3Ka (Ras-binding domain) interaction (P01116 other isoform, or with tags, fused parts or gaps G12C/C51S/C80L/C118S): as above
In short: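 Biotin-AviTag Cys-light KRAS G12C (aa 1-169, C51S/C80L/C118S), GMPPNP-loaded, 1.5 nM, preincubated 2 h with compound, then His-tagged PI3Ka RBD (aa 157-300, 100 nM) plus AlphaScreen beads added for 60-90 min, RT. Buffer Hepes pH 7.4, 10 μM GMPPNP, 2% DMSO; 10-point 1:3 from 50 μM; 4-parameter IC50.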

[3] = Determination of logD (1-octanol / phosphate buffer pH 7.4); format: physicochemical; conditions: 1-octanol/phosphate buffer, pH 7.4, pH 7.4, 1-octanol/phosphate buffer; read-out: Log D, pH 7.4
In short: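 Each phase analysed by LCMS after 1 h shaking at 800 rpm and centrifugation, room temperature. Phases were mutually saturated 1-octanol and 100 mM phosphate buffer at pH 7.4. LogD derived from the phase concentrations.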

[4] = Determination of kinetic solubility (pH 7.4); format: physicochemical; conditions: phosphate buffer, pH 7.4, aqueous buffer, kinetic from dmso stock, 50 mM phosphate buffer pH 7.4, read-out: Ksol, pH 7.4
In short: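 Solubility taken from filtrate peak areas on a calibration curve (HPLC-UV, LC-MS/MS). Before filtration and centrifugation, compound was shaken for 2 h at room temperature in pH 7.4 50 mM phosphate buffer.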

SMILES	IC50 [1]	IC50 [2]	logD [3]	solubility kinetic at 2 h [4]
CCc1c(F)ccc2cccc(-c3ncc4c(N5CCN(C(=O)/C=C/CN6CCOCC6)[C@@H](CC#N)C5)nc(OC[C@@]56CCCN5C[C@H](F)C6)nc4c3F)c12 [Compound 226]	0.01 to 0.1 µM	< 0.01 µM	2.63	103 µg/mL (≈ 137 µM)
Cc1nsc(/C=C/C(=O)N2CCN(c3nc(OCC45CCCN4CCC5)nc4c(F)c(-c5cccc6cccc(Cl)c56)ncc34)C[C@@H]2CC#N)n1 [Compound 143]	< 0.01 µM	< 0.01 µM	2.39	87.8 µg/mL (≈ 121 µM)
N#CC[C@H]1CN(c2nc(OC[C@@]34CCCN3C[C@H](F)C4)nc3c(F)c(-c4cccc5cccc(Cl)c45)ncc23)CCN1C(=O)/C=C/c1ccnc(C2CC2)n1 [Compound 154]	< 0.01 µM	< 0.01 µM	4.36	0.01 µg/mL (≈ 0.0131 µM)
CC(C)c1noc(/C=C/C(=O)N2CCN(c3nc(OCC45CCCN4CCC5)nc4c3CNC(c3cccc5cccc(Cl)c35)C4F)C[C@@H]2CC#N)n1 (stereo partly drawn) [Compound 124]	0.01 to 0.1 µM	0.01 to 0.1 µM	4.21	0.23 µg/mL (≈ 0.311 µM)
N#CC[C@H]1CN(c2nc(OC[C@@]34CCCN3C[C@H](F)C4)nc3c2CCN(c2cccc4ccc(F)c(Cl)c24)C3)CCN1C(=O)/C=C/CN1CCOCC1 [Compound 52]	< 0.01 µM	< 0.01 µM	3.8	23.8 µg/mL (≈ 31.8 µM)
N#CC[C@H]1CN(c2nc(OCC34CCCN3CCC4)nc3c2CCN(c2cccc4cccc(Cl)c24)C3)CCN1C(=O)/C=C/CN1CCSCC1 [Compound 171]	< 0.01 µM	< 0.01 µM	3.3	108 µg/mL (≈ 149 µM)

Further lines, results first:

IC50 [1]	IC50 [2]	logD [3]	solubility kinetic at 2 h [4]	SMILES
< 0.01 µM	< 0.01 µM	3.64	85 µg/mL (≈ 108 µM)	N#CC[C@H]1CN(c2nc(OC[C@@]34CCCN3C[C@H](F)C4)nc3c(F)c(-c4cccc5ccc(F)c(Cl)c45)ncc23)CCN1C(=O)/C=C/CN1CC2CCC(C1)O2 [Example 78, 2-((2S)-1-((E)-4-(8-oxa-3-azabicyclo[3.2.1]octan-3-yl)but-2-enoyl)-4-(7-(8-chloro-7-fluoronaphthalen-1-yl)-8-fluoro-2-(((2R,7aS)-2-fluorotetrahydro-1H-pyrrolizin-7a(5H)-yl)methoxy)pyrido[4,3-d]pyrimidin-4-yl)piperazin-2-yl)acetonitrile]
< 0.01 µM	< 0.01 µM	4.49	0.04 µg/mL (≈ 0.0515 µM)	CC(F)(F)c1noc(/C=C/C(=O)N2CCN(c3nc(OC[C@@]45CCCN4C[C@H](F)C5)nc4c(F)c(-c5cccc6cccc(Cl)c56)ncc34)C[C@@H]2CC#N)n1 [Example 14, 2-((S)-4-(7-(8-chloronaphthalen-1-yl)-8-fluoro-2-(((2R,7aS)-2-fluorotetrahydro-1H-pyrrolizin-7a(5H)-yl)methoxy)pyrido[4,3-d]pyrimidin-4-yl)-1-((E)-3-(3-(1,1-difluoroethyl)-1,2,4-oxadiazol-5-yl)acryloyl)piperazin-2-yl)acetonitrile]
0.01 to 0.1 µM	< 0.01 µM	3.77	5.26 µg/mL (≈ 7 µM)	Cc1cc(/C=C/C(=O)N2CCN(c3nc(OC[C@@]45CCCN4C[C@H](F)C5)nc4c(F)c(-c5cccc6ccc(F)c(F)c56)ncc34)C[C@@H]2CC#N)nc(C)n1 [Example 90, 2-((S)-4-(7-(7,8-difluoronaphthalen-1-yl)-8-fluoro-2-(((2R,7aS)-2-fluorotetrahydro-1H-pyrrolizin-7a(5H)-yl)methoxy)pyrido[4,3-d]pyrimidin-4-yl)-1-((E)-3-(2,6-dimethylpyrimidin-4-yl)acryloyl)piperazin-2-yl)acetonitrile]
